In ChEMBL document CHEMBL1201862, “PubChem BioAssay data set” (2004):
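Interpolation was linear, between the two tested concentrations surrounding the appropriate level; five concentrations were tested over 48 hours in 96-well plates. GI50: concentration for 50% inhibition of growth.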 Activity calls are given as the source filed them. Rule as the data show it: active = GI50 up to about 1.1 µM and inactive = higher.

Experiments:
Test in all cases: NCI-60 cell line screen, 48 h
CCRF-CEM = tested on: CCRF-CEM
XF498 = tested on: XF498
LOX IMVI = tested on: LOX IMVI
KM-20L2 = tested on: KM-20L2
M19-MEL = tested on: M19-MEL
DMS-273 = tested on: DMS-273
U-251 = tested on: U-251
NCI-H23 = tested on: NCI-H23
NCI-H460 = tested on: NCI-H460
Malme-3M = tested on: Malme-3M
UACC-257 = tested on: UACC-257
SNB-19 = tested on: SNB-19
DLD-1 = tested on: DLD-1
SW-620 = tested on: SW-620
NCI-H226 = tested on: NCI-H226
NCI/ADR-RES = tested on: NCI/ADR-RES

| Structure (SMILES) | GI50 (CCRF-CEM) | GI50 (XF498) | GI50 (LOX IMVI) | GI50 (KM-20L2) | GI50 (M19-MEL) | GI50 (DMS-273) | GI50 (U-251) | GI50 (NCI-H23) | GI50 (NCI-H460) | GI50 (Malme-3M) | GI50 (UACC-257) | GI50 (SNB-19) | GI50 (DLD-1) | GI50 (SW-620) | GI50 (NCI-H226) | GI50 (NCI/ADR-RES) |
| --- | --- | --- | --- | --- | --- | --- | --- | --- | --- | --- | --- | --- | --- | --- | --- | --- |
| CC(=O)Oc1ccc(Nn2c3ccccc3c3ccccc32)c(C)c1 | 29.8 µM (inactive) | 27.7 µM (inactive) | > 10 µM (inactive) | 29.4 µM (inactive) | 31.9 µM (inactive) | 19.6 µM (inactive) | 46 µM (inactive) | 38.2 µM (inactive) | 27.7 µM (inactive) | 28.6 µM (inactive) | 33.4 µM (inactive) | 78.7 µM (inactive) | 43.9 µM (inactive) | 25.2 µM (inactive) |  |  |
| NC(CCCCNCc1ccccc1)C(=O)O (stereo not drawn) | > 100 µM (inactive) |  | > 100 µM (inactive) | > 100 µM (inactive) | > 100 µM (inactive) | > 100 µM (inactive) | > 100 µM (inactive) | > 100 µM (inactive) | > 100 µM (inactive) | > 100 µM (inactive) | > 100 µM (inactive) | > 100 µM (inactive) | > 100 µM (inactive) | > 100 µM (inactive) | > 100 µM (inactive) |  |
| O=C(O)CCCCCCC[C@H]1S[C@H]1CCCCCCO |  | > 100 µM (inactive) |  |  | > 100 µM (inactive) |  | > 100 µM (inactive) | > 100 µM (inactive) |  | > 100 µM (inactive) |  | > 100 µM (inactive) | > 100 µM (inactive) |  |  |  |
| CC(C)CC(N/C=C1/N=C(c2ccccc2)OC1=O)C(=O)O (stereo not drawn) | > 100 µM (inactive) |  | > 100 µM (inactive) | > 100 µM (inactive) | > 100 µM (inactive) | > 100 µM (inactive) | > 100 µM (inactive) | > 100 µM (inactive) | > 100 µM (inactive) | > 100 µM (inactive) | > 100 µM (inactive) | > 100 µM (inactive) | > 100 µM (inactive) | > 100 µM (inactive) | > 100 µM (inactive) |  |
| O=C(CC1(O)C(=O)Nc2c(Cl)cc(Cl)cc21)c1ccco1 (stereo not drawn) | 24.3 µM (inactive) | 25.1 µM (inactive) | 33.1 µM (inactive) | 48.3 µM (inactive) |  | 38.8 µM (inactive) | > 100 µM (inactive) | 56.1 µM (inactive) | 65.6 µM (inactive) | > 100 µM (inactive) | > 100 µM (inactive) | > 100 µM (inactive) | 49.3 µM (inactive) | 50.4 µM (inactive) | 23.3 µM (inactive) |  |
| COC(=O)c1s/c(=N\C(=S)N(C)C)n(-c2ccccc2)c1C(=O)OC |  |  | > 100 µM (inactive) | > 100 µM (inactive) | > 100 µM (inactive) | > 100 µM (inactive) | > 100 µM (inactive) | > 100 µM (inactive) | > 100 µM (inactive) | > 100 µM (inactive) | > 100 µM (inactive) | > 100 µM (inactive) |  | > 100 µM (inactive) | > 100 µM (inactive) |  |
| C/C(=N/NC(=O)c1ccccc1S(N)(=O)=O)C(CN1CCCCC1)C(C1=C(O)C2C=CC=CC2OC1=O)c1ccccc1 (stereo not drawn) | 21.9 µM (inactive) | > 100 µM (inactive) | 74.5 µM (inactive) | > 100 µM (inactive) | 47.6 µM (inactive) |  | 89.1 µM (inactive) | > 100 µM (inactive) | 77.4 µM (inactive) | 62.7 µM (inactive) | 95.7 µM (inactive) | 87.7 µM (inactive) | > 100 µM (inactive) | 31.8 µM (inactive) | 90.2 µM (inactive) |  |
| CC(=O)C1C(=O)C(=O)N(c2ccc(Cl)cc2C)C1=O (stereo not drawn) | > 100 µM (inactive) |  |  | > 100 µM (inactive) | > 100 µM (inactive) |  | > 100 µM (inactive) | > 100 µM (inactive) | > 100 µM (inactive) | > 100 µM (inactive) | > 100 µM (inactive) | > 100 µM (inactive) | > 100 µM (inactive) | > 100 µM (inactive) |  |  |
| COc1ccc(/C=C(\C2=NC(=O)CS2)c2nc3ccccc3[nH]2)cc1 | 39.4 µM (inactive) | 14.5 µM (inactive) |  | 49 µM (inactive) | 43.5 µM (inactive) | > 100 µM (inactive) | 42.3 µM (inactive) | 69.7 µM (inactive) | 38.9 µM (inactive) | 69.3 µM (inactive) | 78 µM (inactive) | > 100 µM (inactive) | > 100 µM (inactive) | > 100 µM (inactive) | 8.95 µM (inactive) |  |
| O=C1NC2CCCCCC2C12CCCCC2 (stereo not drawn) | > 100 µM (inactive) | > 100 µM (inactive) | > 100 µM (inactive) | > 100 µM (inactive) | > 100 µM (inactive) |  | > 100 µM (inactive) | > 100 µM (inactive) | > 100 µM (inactive) | > 100 µM (inactive) | > 100 µM (inactive) | > 100 µM (inactive) | > 100 µM (inactive) | > 100 µM (inactive) | > 100 µM (inactive) |  |
| COc1ccc2c(c1)[n+]([O-])c(-c1cccc(Cl)c1)c(N)[n+]2[O-] | 22.9 µM (inactive) | > 100 µM (inactive) |  | 37.8 µM (inactive) | 30.3 µM (inactive) | 33.6 µM (inactive) | 37.3 µM (inactive) | 23.9 µM (inactive) | 27.4 µM (inactive) | 37.2 µM (inactive) | 21.1 µM (inactive) | > 100 µM (inactive) | 38.2 µM (inactive) | 39.7 µM (inactive) | > 100 µM (inactive) |  |
| N#C/C(=C/c1ccco1)C(=O)c1ccccc1 | > 100 µM (inactive) | > 100 µM (inactive) | > 100 µM (inactive) |  | > 100 µM (inactive) |  | > 100 µM (inactive) | > 100 µM (inactive) | > 100 µM (inactive) | > 100 µM (inactive) | > 100 µM (inactive) |  | > 100 µM (inactive) | > 100 µM (inactive) | > 100 µM (inactive) |  |
| COc1cc(C2C(C(=O)Nc3ccccc3C)=C(C)NC(C)=C2C(=O)Nc2ccccc2C)ccc1O | 71.8 µM (inactive) | 87.5 µM (inactive) |  | > 100 µM (inactive) | > 100 µM (inactive) | > 100 µM (inactive) | > 100 µM (inactive) | > 100 µM (inactive) | > 100 µM (inactive) | > 100 µM (inactive) | > 100 µM (inactive) | > 100 µM (inactive) | > 100 µM (inactive) | > 100 µM (inactive) | > 100 µM (inactive) |  |
| CS(=O)(=O)N/N=C/CN1C(=O)c2ccccc2C1=O | > 100 µM (inactive) | > 100 µM (inactive) |  | > 100 µM (inactive) | > 100 µM (inactive) | > 100 µM (inactive) | > 100 µM (inactive) | > 100 µM (inactive) | > 100 µM (inactive) | > 100 µM (inactive) | > 100 µM (inactive) | > 100 µM (inactive) | > 100 µM (inactive) | > 100 µM (inactive) | > 100 µM (inactive) |  |
| COc1ccc(/C(Cl)=C(\C=O)c2ccc(OC)c(OC)c2)cc1 | 21.6 µM (inactive) | 22.2 µM (inactive) | 23.3 µM (inactive) | > 100 µM (inactive) | > 100 µM (inactive) |  | 29.8 µM (inactive) | 21.5 µM (inactive) | 35.2 µM (inactive) | 17.4 µM (inactive) |  | 41.1 µM (inactive) |  | > 100 µM (inactive) | 34.1 µM (inactive) |  |
| COc1ccc(Br)c(CN2CCc3ccccc32)c1OS(=O)(=O)c1ccc(C)cc1 | 21.4 µM (inactive) | 12.4 µM (inactive) |  |  | 4.03 µM (inactive) |  |  | 23.9 µM (inactive) |  | 45.2 µM (inactive) | 48.2 µM (inactive) | 42.5 µM (inactive) | 15.3 µM (inactive) | 16.3 µM (inactive) | > 100 µM (inactive) |  |
| CC1C(/C=C/c2ccoc2)ON2CCCC12 (stereo not drawn) |  |  | > 100 µM (inactive) | > 100 µM (inactive) | > 100 µM (inactive) | > 100 µM (inactive) | > 100 µM (inactive) | > 100 µM (inactive) | > 100 µM (inactive) | 54.2 µM (inactive) | > 100 µM (inactive) | > 100 µM (inactive) | > 100 µM (inactive) | > 100 µM (inactive) | > 100 µM (inactive) |  |
| CN1c2ccccc2N(C(=O)c2ccc([N+](=O)[O-])cc2)C(CC(=O)O)c2cccn21 (stereo not drawn) | > 100 µM (inactive) | > 100 µM (inactive) | > 100 µM (inactive) | > 100 µM (inactive) | > 100 µM (inactive) | > 100 µM (inactive) |  | > 100 µM (inactive) | > 100 µM (inactive) | > 100 µM (inactive) | > 100 µM (inactive) | > 100 µM (inactive) | > 100 µM (inactive) | > 100 µM (inactive) | > 100 µM (inactive) |  |
| COC(C(O)c1ccc2c(c1)OCO2)P(=O)(c1ccccc1)c1ccccc1 (stereo not drawn) | > 100 µM (inactive) | > 100 µM (inactive) |  |  | > 100 µM (inactive) | > 100 µM (inactive) | > 100 µM (inactive) | 30.8 µM (inactive) | > 100 µM (inactive) | 16 µM (inactive) | > 100 µM (inactive) | > 100 µM (inactive) | 88.7 µM (inactive) | > 100 µM (inactive) | 73.1 µM (inactive) |  |
| COc1cc(C2c3cc4c(cc3[C@@H](Oc3ccc(F)cc3)C3COC(=O)[C@H]23)OCO4)cc(OC)c1O (stereo partly drawn) | 0.368 µM (active) |  | 0.578 µM (active) | 0.286 µM (active) | 0.671 µM (active) | 0.337 µM (active) | 0.365 µM (active) | 0.335 µM (active) | 0.343 µM (active) | 0.653 µM (active) | 0.59 µM (active) |  | 0.656 µM (active) | 0.481 µM (active) | 0.417 µM (active) | 0.22 µM (active) |
| COc1cc2c(cc1OC)-c1c3c(cc4c1[C@@H](C2)N(C)CC4)OCO3 | 3.96 µM (inactive) |  | 3.78 µM (inactive) | 3.44 µM (inactive) | 10.4 µM (inactive) | 3.52 µM (inactive) | 10.8 µM (inactive) | 10.2 µM (inactive) | 2.53 µM (inactive) | 9.14 µM (inactive) | 11.6 µM (inactive) | 5.74 µM (inactive) | 6 µM (inactive) | 3.92 µM (inactive) | 7.06 µM (inactive) | 5.62 µM (inactive) |
